According to patent US20140023611A1 (priority 2010, published 2014):

target: T1, rat NaP2b (SLC34A2) (Rattus norvegicus, UniProt Q9JJ09); experiment: Inhibition of NaP2b-mediated Pi (33P) uptake in transfected HEK293 cells, rat NaP2b; type: cell-based; conditions: 33P Pi uptake, 0.1 mM phosphate, value given as pIC50 range
T1 construct: host or cells: HEK293
T1 sequence (Q9JJ09 1-695): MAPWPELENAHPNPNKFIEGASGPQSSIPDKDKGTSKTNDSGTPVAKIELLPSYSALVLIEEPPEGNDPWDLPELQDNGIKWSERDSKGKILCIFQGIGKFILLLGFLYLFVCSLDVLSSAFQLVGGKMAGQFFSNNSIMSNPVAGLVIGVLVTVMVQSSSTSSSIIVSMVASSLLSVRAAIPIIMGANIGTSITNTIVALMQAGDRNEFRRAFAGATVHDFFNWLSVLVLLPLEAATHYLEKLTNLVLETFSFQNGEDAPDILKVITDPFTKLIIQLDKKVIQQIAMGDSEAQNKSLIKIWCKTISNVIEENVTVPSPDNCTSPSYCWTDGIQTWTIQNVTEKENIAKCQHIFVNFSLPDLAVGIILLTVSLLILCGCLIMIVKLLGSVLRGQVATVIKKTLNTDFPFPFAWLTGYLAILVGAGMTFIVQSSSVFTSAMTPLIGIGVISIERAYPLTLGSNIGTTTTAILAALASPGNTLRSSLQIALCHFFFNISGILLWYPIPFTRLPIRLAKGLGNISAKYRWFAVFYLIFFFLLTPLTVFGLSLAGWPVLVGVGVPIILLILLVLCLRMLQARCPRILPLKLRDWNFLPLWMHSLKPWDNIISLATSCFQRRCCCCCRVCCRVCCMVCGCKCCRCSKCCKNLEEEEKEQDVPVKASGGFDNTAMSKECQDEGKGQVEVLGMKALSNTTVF
Method in brief: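 HEK293 cells were transiently transfected with NaP2b cDNA using Lipofectamine and grown near confluence. Compounds were tested at twelve concentrations from 0.1 nM to 30 uM in duplicate, and 33P-phosphate uptake was counted by scintillation after lysis. Results are expressed as pIC50.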

Compound | IC50 [µM]
O=C(O)CCSCc1cccc(C(=O)Nc2ccc(N3CCCCC3)cc2-c2cc(NCc3ccc(Cl)c(C(F)(F)F)c3)ncn2)c1 [Example 3.5, 3-((3-((2-(6-((4-Chloro-3-(trifluoromethyl)benzyl)amino)pyrimidin-4-yl)-4-(piperidin-1-yl)phenyl)carbamoyl)benzyl)thio)propanoic acid] | 1 to 7.94
O=C(O)c1ccc(SCc2cccc(C(=O)Nc3ccc(N4CCCCC4)cc3-c3cc(C(=O)NCc4cccc(C(F)(F)F)c4)ccn3)c2)nc1 [Example 8.15] | 1 to 7.94
CCN(CC)c1ccc(NC(=O)c2cccc(CCCOCCOCCOCCOCCNC(=O)c3cccnc3)c2)c(-c2cc(C(=O)N[C@H]3CCCc4ccccc43)ccn2)c1 [Example 324] | < 1
O=C(O)CCSCc1cccc(C(=O)Nc2ccc(N3CCCCC3)cc2-c2cc(NCc3cccc(C(F)(F)F)c3)ccn2)c1 [Example 69, 3-((3-((4-(Piperidin-1-yl)-2-(4-((3-(trifluoromethyl)benzyl)amino)pyridin-2-yl)phenyl)carbamoyl)benzyl)thio)propanoic acid] | 10 to 31.6
O=C(NCc1cccc(C(F)(F)F)c1)c1ccnc(-c2cc(N3CCCCC3)ccc2NC(=O)c2cccc(CSCCOCCOCCOCCOCCC(=O)N3CCC(N4CCOCC4)CC3)c2)c1 [Example 154, 2-(2-(3-(17-(4-morpholinopiperidin-1-yl)-17-oxo-5,8,11,14-tetraoxa-2-thiaheptadecyl)benzamido)-5-(piperidin-1-yl)phenyl)-N-(3-(trifluoromethyl)benzyl)isonicotinamide] | 10 to 31.6
CN(CCN1CCOCC1)C(=O)c1cccc(C(=O)Nc2ccc(N3CCCCC3)cc2-c2cc(C(=O)NCc3cccc(C(F)(F)F)c3)ccn2)n1 [Example 11.1, N2-Methyl-N2-(2-morpholinoethyl)-N6-(4-(piperidin-1-yl)-2-(4-((3-(trifluoromethyl)benzyl)carbamoyl)pyridin-2-yl)phenyl)pyridine-2,6-dicarboxamide] | 1 to 7.94
O=C(NCc1cccc(C(F)(F)F)c1)c1ccnc(-c2cc(N3CCCCC3)ccc2NC(=O)c2cccc(Cn3ccc4c(C(=O)O)cccc43)c2)c1 [Example 9.1, 1-(3-((4-(Piperidin-1-yl)-2-(4-((3-(trifluoromethyl)benzyl)carbamoyl)pyridin-2-yl)phenyl)carbamoyl)benzyl)-1H-indole-4-carboxylic acid] | 1 to 7.94
O=C(O)CCSCc1cccc(C(=O)Nc2ccc(N3CCCCC3)cc2-c2cc(OCc3cccc(C(F)(F)F)c3)ncn2)c1 [Example 3.8, 3-((3-((4-(Piperidin-1-yl)-2-(6-((3-(trifluoromethyl)benzyl)oxy)pyrimidin-4-yl)phenyl)carbamoyl)benzyl)thio)propanoic acid] | 10 to 31.6
O=C(O)CCCC1CCN(C(=O)CCCC2CCN(C(=O)c3cccc(C(=O)Nc4ccc(N5CCCCC5)cc4-c4cc(C(=O)NCc5cccc(C(F)(F)F)c5)ccn4)c3)CC2)CC1 [Example 113] | 1 to 7.94
CC(=O)N1CCN(CCN(C)C(=O)c2cccc(C(=O)Nc3ccc(N4CCCCC4)cc3-c3cc(C(=O)NCc4cccc(C(F)(F)F)c4)ccn3)c2)CC1 [Example 81, N1-(2-(4-Acetylpiperazin-1-yl)ethyl)-N1-methyl-N3-(4-(piperidin-1-yl)-2-(4-(3-(trifluoromethyl)benzylcarbamoyl)pyridin-2-yl)phenyl)isophthalamide] | 1 to 7.94
C[C@@H]1CN(c2ccc(NC(=O)c3cccc(C(=O)N(C)CCN4CCOCC4)c3)c(-c3cc(C(=O)NCc4cccc(C(F)(F)F)c4)ccn3)c2)C[C@H](C)O1 [Example 95] | 10 to 31.6
O=C(NCCOCCO)c1cccc(C(=O)Nc2ccc(N3CCCCC3)cc2-c2cc(NCc3cccc(C(F)(F)F)c3)ncn2)c1 [Example 64, N1-(2-(2-Hydroxyethoxy)ethyl)-N3-(4-(piperidin-1-yl)-2-(6-((3-(trifluoromethyl)benzyl)amino)pyrimidin-4-yl)phenyl)isophthalamide] | 10 to 31.6
O=C(NCc1cccc(C(F)(F)F)c1)c1ccnc(-c2cc(N3CCCCC3)ccc2NC(=O)c2cccc(C(=O)N(CCN3CCOCC3)Cc3ccccc3)c2)c1 [Example 4.12, N1-Benzyl-N1-(2-morpholinoethyl)-N3-(4-(piperidin-1-yl)-2-(4-((3-(trifluoromethyl)benzyl)carbamoyl)pyridin-2-yl)phenyl)isophthalamide] | 1 to 7.94
O=C(O)CCSCc1cccc(C(=O)Nc2ccc(N3CCCCC3)cc2-c2cc(C(=O)NCc3ccc(N4CCOCC4)cc3)ccn2)c1 [Example 78, 3-(3-(2-(4-(4-Morpholinobenzylcarbamoyl)pyridin-2-yl)-4-(piperidin-1-yl)-phenylcarbamoyl)benzylthio) propanoic acid] | 10 to 31.6
CC(=O)N[C@H]1CCN(C(=O)c2cccc(C(=O)Nc3ccc(N4CCCCC4)cc3-c3cc(C(=O)NCc4cccc(C(F)(F)F)c4)ccn3)c2)C1 [Example 4.9, (S)-2-(2-(3-(3-Acetamidopyrrolidine-1-carbonyl)benzamido)-5-(piperidin-1-yl)phenyl)-N-(3-(trifluoromethyl)benzyl)isonicotinamide] | 10 to 31.6
O=C(O)CCSCc1cccc(C(=O)Nc2ccc(N3CCCCC3)cc2-c2cc(C(=O)NCc3ccccc3OC(F)(F)F)ccn2)c1 [Example 1.43] | 1 to 7.94
O=C(NCc1cccc(C(F)(F)F)c1)c1ccnc(-c2cc(N3CCCCC3)ccc2NC(=O)c2cccc(CSCCO)c2)c1 [Example 8.2] | 1 to 7.94
C[C@H]1CCCCN1c1ccc(NC(=O)c2cccc(C(=O)N(C)CCN3CCOCC3)c2)c(-c2cc(C(=O)NCc3cccc(C(F)(F)F)c3)ccn2)c1 [Example 105] | 1 to 7.94
O=C(O)CCSCc1cccc(C(=O)Nc2ccc(N3CCCCC3)cc2-c2nccc(C(=O)NCc3cccc(C(F)(F)F)c3)c2F)c1 [Example 88] | 10 to 31.6
Cc1ccc(CNC(=O)c2ccnc(-c3cc(N4CCCCC4)ccc3NC(=O)c3cccc(CSCCC(=O)O)c3)c2)cc1C [Example 1.49] | 1 to 7.94
CN(CCN1CCOCC1)C(=O)c1cccc(C(=O)Nc2ccc(N3CCCCC3)cc2-c2cc(NCc3cccc(C(F)(F)F)c3)ccn2)c1 [Example 104] | 10 to 31.6
O=C(O)CCSCc1cccc(C(=O)Nc2ccc(N3CCCCC3)cc2-c2cc(C(=O)NCc3ccc(F)c(OC(F)(F)F)c3)ccn2)c1 [Example 1.25] | 1 to 7.94
O=C(O)CCSCc1cccc(C(=O)Nc2ccc(N3CCCCC3)cc2-c2cc(C(=O)NCc3ccc(-n4cccn4)cc3)ccn2)c1 [Example 79, 3-(3-((2-(4-((4-(1H-Pyrazol-1-yl)benzyl)carbamoyl)pyridin-2-yl)-4-(piperidin-1-yl)phenyl)carbamoyl)benzylthio)propanoic acid] | 10 to 31.6
CCN(CC)CCN(C)C(=O)c1cccc(C(=O)Nc2ccc(N3CCCCC3)cc2-c2cc(C(=O)NCc3cccc(C(F)(F)F)c3)ccn2)c1 [Example 4.1, N1-(2-(Diethylamino)ethyl)-N1-methyl-N3-(4-(piperidin-1-yl)-2-(4-((3-(trifluoromethyl)benzyl)carbamoyl)pyridin-2-yl)phenyl)isophthalamide] | 10 to 31.6
COc1ccc(C(F)(F)F)cc1CNC(=O)c1ccnc(-c2cc(N3CCCCC3)ccc2NC(=O)c2cccc(C(=O)N(C)CCN3CCOCC3)c2)c1 [Example 125, N1-(2-(4-((2-methoxy-5-(trifluoromethyl)benzyl)carbamoyl)pyridin-2-yl)-4-(piperidin-1-yl)phenyl)-N3-methyl-N3-(2-morpholinoethyl)isophthalamide] | 1 to 7.94
CCN(CC)c1ccc(NC(=O)c2cccc(C(=O)N(C)CCN(C)CCOCCOCCOCCNC(=O)c3ccc(O)cc3)c2)c(-c2cc(C(=O)N[C@H]3CCCc4ccccc43)ccn2)c1 [Example 345, (S)—N^1-(4-(Diethylamino)-2-(4-(1,2,3,4-tetrahydronaphthalen-1-ylcarbamoyl)pyridin-2-yl)phenyl)-N^3-(1-(4-hydroxyphenyl)-14-methyl-1-oxo-5,8,11-trioxa-2,14-diazahexadecan-16-yl)-N^3-methylisophthalamide] | 1 to 7.94
O=C(O)CN(CCOCCO)C(=O)CCOCCOCCOCCOCCSCc1cccc(C(=O)Nc2ccc(N3CCCCC3)cc2-c2cc(C(=O)NCc3cccc(C(F)(F)F)c3)ccn2)c1 [Example 145, 18-(2-(2-hydroxyethoxy)ethyl)-17-oxo-1-(3-(4-(piperidin-1-yl)-2-(4-(3-(trifluoromethyl)benzylcarbamoyl)pyridin-2-yl)phenylcarbamoyl)phenyl)-5,8,11,14-tetraoxa-2-thia-18-azaicosan-20-oic acid] | 10 to 31.6
O=C(O)CNC(=O)Cc1cccc(SCc2cccc(C(=O)Nc3ccc(N4CCCCC4)cc3-c3cc(C(=O)NCc4cccc(C(F)(F)F)c4)ccn3)c2)c1 [Example 139] | 10 to 31.6
